# Measured values: patent publication US20240190855A1 (Relay Therapeutics, Inc., priority 2021, published 2024)
# pIC50: −log10 of the molar value.
# Target: T1, CDK2/Cyclin E complex (Homo sapiens, UniProt P24941)
# T1 construct: purchased Eurofins 14-475
# Assay: CDK2/Cyclin E fluorescence-based microfluidic mobility shift assay (CDK2 Biochemical Caliper Assay)
# Settings: read-out: Biochemical CDK2/CyclinE Caliper IC50
# Method in brief: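 Wild-type CDK2/Cyclin E was preincubated with compound and ATP for 30 min at RT before the 5-FAM-QSPKKG peptide was added. Final concentrations were 0.1 nM enzyme, 2000 uM ATP, 1.5 uM peptide and 1% DMSO. After 20 hr at RT and EDTA stop, substrate conversion was read by microfluidic mobility shift over an 11-point, 3-fold dilution series.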
row,Structure (SMILES),pIC50
1,"Cc1cc(CC(=O)Nc2cc([C@H]3CC[C@@H](Cc4cn[nH]c4C(C)C)C3)[nH]n2)on1 (single isomer, unassigned) [Example 409]",6.60 to 7.00
2,c1cncc(OC[C@H]2C[C@H](c3cc(Nc4nccn5nccc45)n[nH]3)C2)c1 [Example 537],4.00 to 6.00
3,"C[C@H]1CC[C@H](C)N1C(=O)O[C@@H]1CO[C@H](c2cc(Nc3ccc4c(c3)C(C)(C)NC4=O)n[nH]2)C1 (single isomer, unassigned) [Example 590]",≥ 7.00
4,Cc1nc(Nc2cc(C3CCCC3)[nH]n2)cc(-c2ccco2)n1 [Example 853],4.00 to 6.00
5,"Cc1cc(CC(=O)Nc2cc([C@H]3C[C@H](OC(=O)NC4(C)CC4)CO3)[nH]n2)on1 (single isomer, unassigned) [Example 108]",4.00 to 6.00
6,Cc1cc(CC(=O)Nc2cc([C@H]3C[C@@H]4CC[C@H]3C4)[nH]n2)on1 (racemic) [Example 49],4.00 to 6.00
7,"Cc1cnn(-c2ccnc(Nc3cc([C@H]4CC[C@@H](OC(=O)NC(C)C)C4)[nH]n3)c2)c1 (single isomer, unassigned) [Example 402]",6.60 to 7.00
8,COCc1nc2ccnc(Nc3cc([C@H]4C[C@@H](OC(=O)NC(C)(C)C)CO4)[nH]n3)c2s1 [Example 692],≥ 7.00
9,Cc1cc(C)n2ccnc(Nc3cc(C4CCCC4)[nH]n3)c12 [Example 795],4.00 to 6.00
10,CC1(C)NC(=O)c2ccc(Nc3cc(C4CCCC4)[nH]n3)nc21 [Example 796],≥ 7.00
11,"CC(C)NC(=O)O[C@@H]1CC[C@H](c2cc(Nc3ccc4c(c3)C(C)(C)NC4=O)n[nH]2)C1 (single isomer, unassigned) [Example 548]",≥ 7.00
12,COCc1cc2c(Nc3cc([C@@H]4C[C@H](Oc5nncn5C5(C)CC5)CO4)[nH]n3)nccn2n1 [Example 719],≥ 7.00
13,COCc1cc2c(Nc3cc([C@H]4C[C@@H](Oc5nncn5C(C)(C)C)CO4)[nH]n3)nccn2n1 [Example 709],≥ 7.00
14,COCc1cc2c(Nc3cc([C@H]4C[C@@H](OC(=O)N[C@@H](C)C(F)F)CO4)[nH]n3)nccn2n1 [Example 763],≥ 7.00
15,"Cc1cc(CC(=O)Nc2cc([C@@H]3C[C@H](OC(=O)NC(C)C)CO3)[nH]n2)on1 (single isomer, unassigned) [Example 345]",6.60 to 7.00
16,Cn1nc(C=O)cc1C(=O)Nc1cc([C@H]2C[C@@H](OC(=O)NC3(C)CC3)CO2)[nH]n1 [Example 883],≥ 7.00
17,"CC(C)NC(=O)O[C@@H]1CC[C@H](c2cc(N)n[nH]2)C1 (single isomer, unassigned) [Example 417]",4.00 to 6.00
18,CC1(NC(=O)O[C@H]2CO[C@@H](c3cc(Nc4nccc5nccn45)n[nH]3)C2)CC1 [Example 735],≥ 7.00
19,Cc1c(Nc2cc(C3CCCC3)[nH]n2)nn2cnnc2c1C [Example 866],4.00 to 6.00

row,Structure (SMILES),pIC50
1,Cc1cn2nccc2c(Nc2cc(C3CCCC3)[nH]n2)n1 [Example 822],6.00 to 6.60
2,Cc1cc(CC(=O)Nc2cc(N3CC[C@@H](COC(=O)NC4(C)CC4)C3)[nH]n2)on1 (racemic) [Example 53],4.00 to 6.00
3,COCc1cc2c(Nc3cc([C@H]4C[C@@H](OC(=O)NC(C)(C)C#N)CO4)[nH]n3)nccn2n1 [Example 717],≥ 7.00
4,COCc1cc2c(Nc3cc([C@H]4C[C@@H](OC(=O)NC5(CC(F)(F)F)CC5)CO4)[nH]n3)nccn2n1 [Example 643],≥ 7.00
5,COCc1cc2c(Nc3cc([C@H]4C[C@@H](OC(=O)NC5(c6cnn(C)c6)CC5)CO4)[nH]n3)nccn2n1 [Example 678],6.60 to 7.00
6,"CO[C@@H](c1cc(C(=O)Nc2cc([C@H]3C[C@@H](OC(=O)NC4(C)CC4)CO3)[nH]n2)n(C)n1)C(F)(F)F (single isomer, unassigned) [Example 890]",≥ 7.00
7,"Cc1cc(CC(=O)Nc2cc([C@@H]3CC[C@H](Cc4cn[nH]c4C(C)C)C3)[nH]n2)on1 (single isomer, unassigned) [Example 408]",6.00 to 6.60
8,CC1(NC(=O)O[C@H]2CO[C@@H](c3cc(Nc4cc5nccnc5cn4)n[nH]3)C2)CC1 [Example 760],6.00 to 6.60
9,"CC(C)c1[nH]ncc1O[C@@H]1CO[C@H](c2cc(Nc3nccn4nccc34)n[nH]2)C1 (single isomer, unassigned) [Example 584]",4.00 to 6.00
10,"Cc1cc(CC(=O)Nc2cc([C@H]3CC[C@@H](NC(=O)c4ccccc4)C3)[nH]n2)on1 (single isomer, unassigned) [Example 131]",4.00 to 6.00
11,"CC(C)NC(=O)O[C@@H]1CC[C@H](c2cc(NC(=O)CN(C)c3ncnc4nc[nH]c34)n[nH]2)C1 (single isomer, unassigned) [Example 374]",6.60 to 7.00
12,CC(C)c1ccnnc1OC[C@H]1C[C@H](c2cc(Nc3nccc4ncsc34)n[nH]2)C1 [Example 439],4.00 to 6.00
13,Cc1cc(CC(=O)Nc2ncc(C3CCCC3)o2)on1 [Example 38],4.00 to 6.00
14,"CC(C)NC(=O)O[C@H]1CC[C@@H](c2cc(Nc3nccn4nccc34)n[nH]2)C1 (single isomer, unassigned) [Example 139]",≥ 7.00
15,Cc1ccc(O[C@@H]2CC[C@H](c3cc(NC(=O)Cc4cc(C)no4)n[nH]3)C2)nn1 [Example 397],6.00 to 6.60
16,Fc1cnc(Nc2cc(C3CCCC3)[nH]n2)c2ccccc12 [Example 860],4.00 to 6.00
17,CC1(NC(=O)O[C@H]2CO[C@@H](c3cc(Nc4ccnc5nccn45)n[nH]3)C2)CC1 [Example 748],≥ 7.00
18,c1cn2nc(C3CC3)cc2c(Nc2cc(C3CCCC3)[nH]n2)n1 [Example 870],4.00 to 6.00

# Second part, the compound after the results:
row,pIC50,Structure (SMILES)
1,4.00 to 6.00,"COCc1cc(C(=O)Nc2cc([C@@H]3C[C@H](Oc4cnccc4C4CC4)CO3)[nH]n2)n(C)n1 (single isomer, unassigned) [Example 538]"
2,≥ 7.00,Cn1nc(COC(F)F)cc1C(=O)Nc1cc([C@H]2C[C@@H](OC(=O)NC3(C)CC3)CO2)[nH]n1 [Example 753]
3,≥ 7.00,COCc1cc2c(Nc3cc([C@H]4C[C@@H](COc5[nH]ncc5C(C)C)C4)[nH]n3)nccn2n1 [Example 718]
4,4.00 to 6.00,"COCc1cc(C(=O)Nc2cc([C@H]3CC[C@H](c4ncc(C)cn4)C3)[nH]n2)n(C)n1 (single isomer, unassigned) [Example 595]"
5,≥ 7.00,COCc1cc(C(=O)Nc2cc([C@H]3C[C@@H](OC(=O)NC4(C)CC4)CO3)[nH]n2)n(C)n1 [Example 880]
6,4.00 to 6.00,"COCc1cc(C(=O)Nc2cc([C@@H]3CC[C@H](c4cc(C(C)C)ncn4)C3)[nH]n2)n(C)n1 (single isomer, unassigned) [Example 602]"
7,4.00 to 6.00,COCc1cc(C(=O)Nc2cc(-c3csc4cnc(NC(C)C)nc34)[nH]n2)n(C)n1 [Example 337]
8,4.00 to 6.00,COCc1cc(C(=O)Nc2cc([C@H]3C[C@H](COC(=O)NC(C)C)C3)[nH]n2)n(C)n1 [Example 461]
9,≥ 7.00,COCc1cc(C(=O)Nc2cc([C@H]3C[C@@H](COc4nnccc4C(C)C)C3)[nH]n2)n(C)n1 [Example 429]
10,4.00 to 6.00,"COCc1cc(C(=O)Nc2cc([C@@H]3CC[C@@H](Cc4ncc(C)s4)C3)[nH]n2)n(C)n1 (single isomer, unassigned) [Example 556]"
11,≥ 7.00,"COCc1cc(C(=O)Nc2cc([C@H]3CC[C@@H](Oc4nnccc4C4CCC4)C3)[nH]n2)n(C)n1 (single isomer, unassigned) [Example 550]"
12,6.60 to 7.00,"COCc1cc2c(Nc3cc([C@@H]4CC[C@H](Oc5cccnc5)C4)[nH]n3)nccn2n1 (single isomer, unassigned) [Example 526]"
13,4.00 to 6.00,"COCc1cc(C(=O)Nc2cc([C@H]3CC[C@@H](Oc4ccc(C)nc4)C3)[nH]n2)n(C)n1 (single isomer, unassigned) [Example 395]"
14,≥ 7.00,COC12CC(NC(=O)O[C@H]3CO[C@@H](c4cc(NC(=O)c5cc(COC(F)(F)F)nn5C)n[nH]4)C3)(C1)C2 [Example 913]
15,4.00 to 6.00,COCc1cc(C(=O)Nc2cc([C@H]3C[C@@](C)(CC(=O)NC(C)C)C3)[nH]n2)n(C)n1 [Example 532]
16,≥ 7.00,COCc1cc(C(=O)Nc2ncc([C@H]3C[C@@H](COC(=O)NC(C)C)C3)s2)n(C)n1 [Example 670]
17,4.00 to 6.00,"COCc1cc(C(=O)Nc2cc([C@@H]3CC[C@@H](c4ncc(C)cn4)C3)[nH]n2)n(C)n1 (single isomer, unassigned) [Example 596]"
18,6.00 to 6.60,"COCc1cc(C(=O)Nc2cc([C@@H]3CC[C@H](Cc4ncc(C)s4)C3)[nH]n2)n(C)n1 (single isomer, unassigned) [Example 555]"
19,4.00 to 6.00,COCc1cc(C(=O)Nc2cc([C@H]3C[C@H](COc4nscc4C4CC4)C3)[nH]n2)n(C)n1 [Example 455]
20,≥ 7.00,"COCc1cc(C(=O)Nc2cc([C@H]3CC[C@@H](Oc4nnccc4C(F)(F)F)C3)[nH]n2)n(C)n1 (single isomer, unassigned) [Example 476]"
21,≥ 7.00,COCc1cc2c(Nc3cc([C@H]4C[C@@H](OC(=O)NC5(COC)CC5)CO4)[nH]n3)nccn2n1 [Example 668]
22,4.00 to 6.00,"COCc1cc(C(=O)Nc2cc([C@@H]3CC[C@H](Oc4ccc(C(C)C)nn4)C3)[nH]n2)n(C)n1 (single isomer, unassigned) [Example 449]"
23,≥ 7.00,"COCc1cc(C(=O)Nc2cc([C@@H]3CC[C@H](Oc4nnccc4C4CCC4)C3)[nH]n2)n(C)n1 (single isomer, unassigned) [Example 551]"
24,4.00 to 6.00,"COCc1cc(C(=O)Nc2cc([C@H]3CC[C@@H](Oc4nccnc4C(F)F)C3)[nH]n2)n(C)n1 (single isomer, unassigned) [Example 502]"
25,≥ 7.00,COCc1cc(C(=O)Nc2cc([C@H]3C[C@@H](COc4nncn4C(C)C)C3)[nH]n2)n(C)n1 [Example 633]
26,4.00 to 6.00,COCc1cc2c(Nc3cc([C@H]4C[C@H](COc5nnccc5C(C)C)C4)[nH]n3)nccn2n1 [Example 520]
27,4.00 to 6.00,"COCc1cc(C(=O)Nc2cc([C@H]3C[C@H](OC)[C@@H](OC(=O)NC(C)C)C3)[nH]n2)n(C)n1 (single isomer, unassigned) [Example 567]"
